Results reported in patent US20240279600A1, “COMPOSITIONS AND METHODS FOR PROMOTING IN VITRO MATURATION OF CELLS” (MEMORIAL SLOAN-KETTERING CANCER CENTER, priority 2021, published 2024).
“Also recorded” adds a separate entry of the source.

Legend:
Format in all cases: cell-based, human
[1] = test system: hPSC-derived cortical neurons; experiment: High-content maturity assay / chemical screen in hPSC-derived cortical neurons; details: for dose-response validation, mean of 4 maturity parameters normalized to DMSO (mean maturation score): 30 nM-10,000 nM, nuclear size and roundness, neurite length, KCl-induced FOS/EGR1+ cells; for number of cells (cell viability / neuron survival): with respect to DMSO, treatment days 7-14, day 21
Text: The phenotypic complexity of neurons makes single-readout assays unsuitable to fully capture maturation stages. Therefore, a multi-phenotype approach (via high-content screening, HCS) (Boutros M., Heigwer F. & Laufer C. Cell vol. 163 1314-1325 (2015)) was used to design an assay that simultaneously monitors distinct features of neuronal maturation (FIG. 1A). Dendritic outgrowth is a widely used parameter of neuron maturity (Wu, G. Y. et al., J. Neurosci. 19, 4472-4483 (1999)) and can be monitored through automated tracing of microtubule-associated protein 2 (MAP2) immunostaining (FIGS. 1B and 1C). Changes in nuclear size and morphology are also characteristic of neuron development and maturation (Ito K. & Takizawa T., Frontiers in Genetics vol. 9 (2018)) and can be tracked via DAPI counterstaining (FIGS. 1B and 1C). As an indirect measurement of neuronal function and excitability, the nuclear expression of immediate early gene (IEG) products FOS and EGR1 were quantified following 2 hours of potassium chloride (KCl) stimulation (FIGS. 1B and 1D). IEGs are defined by their rapid induction in the absence of de-novo protein synthesis by stimuli that include sustained membrane depolarization in neurons (Sheng M. & Greenberg M. E., Neuron vol. 4 477-485 (1990)). In contrast to more traditional measures of neuronal activity such as calcium imaging and electrophysiology, IEG immunoreactivity is readily scalable as a readout for thousands of treatment conditions. However, IEGs can be triggered by stimuli other than neuronal activity including growth factor signaling (Greenberg M. E. & Ziff E. B., Nature 311, 433-438 (1984)) and cellular stress responses (Murai J. et al., Cell Rep. 30, 4137-4151.e6 (2020)). Therefore, to avoid direct activation of IEGs, transient compound treatment (day 7-14) was used and all measurements were performed after rinsing of compounds followed by culture in compound-free medium for an additional 7 days (day 14-21) prior to analysis (FIG. 1A). Furthermore, IEGs under both basal and KCl-stimulated conditions were recorded to specifically determine the depolarization-induced signal by subtracting baseline from KCl-induced responses. Measuring maturation readouts only after compound withdrawal enabled the identification of compounds that trigger a long-lasting “memory” of a maturation stimulus even after compound removal.
The present maturity assay was then applied to screen a library of 2688 bioactive compounds in hPSC-derived cortical neurons (FIG. 6A). The library was applied at 5 μM and standard scores (z-scores) of duplicate screen runs were averaged for analysis. Viability was determined by quantifying intact nuclei, and 325 toxic compounds with a z-score below −2 were excluded from further analysis (FIG. 6B). For HCS hit selection, principal component analysis (PCA) was applied to 6 maturity z-scores to identify patterns of distribution among compounds, avoiding single threshold hit discrimination (Singh S. et al., Journal of Biomolecular Screening vol. 19 640-650 (2014)) (FIG. 1E, left panel). The 6 parameters were: nuclear size and roundness, total neurite length and branching (number of segments per cell), and fractions of KCl-induced FOS+ and EGR1+ cells. Three phenotypic clusters of compounds were identified by PCA: maturation enhancers (hits); maturation suppressors, consisting mostly of inhibitors of the PI3K/AKT/mTOR axis; and inducers of non-neuronal contaminant proliferation, which were highly enriched in TGF-β signaling inhibitors as well as inhibitors of rho-associated protein kinase (ROCK) and other signaling pathways (FIG. 1E, right panel).
A bioactive compound library containing 2688 compounds was used for screening at a concentration of 5 μM (Selleck Bioactive Library, Selleck Chemicals). 192 DMSO wells contained within the library were used as negative controls. […]

[2] = test system: hPSC-derived cortical neurons from treated NPC; experiment: Ca2+ imaging (GCaMP6m) after transient inhibition of chromatin regulators in NPC; details: NPC treated d12 to d20, imaging d40, versus DMSO
[3] = test system: hPSC-derived cortical neurons from treated NPC; experiment: Western blot for maturation markers after transient inhibition of chromatin regulators in NPC; details: NPC treated d12 to d20, neurons analysed d35, versus DMSO

Compound	dose-response validation, mean of 4 maturity parameters normalized to DMSO (mean maturation score) [1]	number of cells (cell viability / neuron survival) [1]	synchronicity of the neuronal network (synchronous firing rate) [2]	expression of the maturation markers Nefh and Stx1a [3]	amplitude of individual Ca2+ spikes [2]	frequency of individual Ca2+ spikes [2]
CC(C)N(C[C@H]1O[C@@H](n2cnc3c(N)ncnc32)[C@H](O)[C@@H]1O)[C@H]1C[C@@H](CCc2nc3cc(C(C)(C)C)ccc3[nH]2)C1 [EPZ-5676, (2R,3R,4S,5R)-2-(6-aminopurin-9-yl)-5-[[[3-[2-(6-tert-butyl-1H-benzimidazol-2-yl)ethyl]cyclobutyl]-propan-2-ylamino]methyl]oxolane-3,4-dioland]	confirmed hits	did not significantly affect neuron survival	–	–	–	–
O=C(O)c1ccc(CN2CCC(CN[C@@H]3C[C@H]3c3ccccc3)CC2)cc1 [GSK2879552, 4-[[4-[[[(1R,2S)-2-phenylcyclopropyl]amino]methyl]piperidin-1-yl]methyl]benzoic acid]	stronger combined effect than OG-L002; also recorded: confirmed hits	did not significantly affect neuron survival	–	–	–	–
N[C@H]1C[C@@H]1c1ccc(-c2cccc(O)c2)cc1 [OG-L002]	confirmed hits	–	–	–	–	–
COc1cc2c(NC3CCN(C(C)C)CC3)nc(C3CCCCC3)nc2cc1OCCCN1CCCC1 [UNC0638, 2-cyclohexyl-6-methoxy-N-(1-propan-2-ylpiperidin-4-yl)-7-(3-pyrrolidin-1-ylpropoxy)quinazolin-4-amine]	–	–	significant changes	robust increased expression	–	–
COC(=O)C1=C(C)NC(C)=C([N+](=O)[O-])C1c1ccccc1C(F)(F)F (stereo not drawn) [Bay K 8644, methyl 2,6-dimethyl-5-nitro-4-[2-(trifluoromethyl)phenyl]-1,4-dihydropyridine-3-carboxylate]	confirmed hits	did not significantly affect neuron survival	–	–	–	–
CCCc1cc(C)[nH]c(=O)c1CNC(=O)c1cc(-c2ccnc(N3CCN(C)CC3)c2)cc2c1cnn2C(C)C [GSK343, N-[(6-methyl-2-oxo-4-propyl-1H-pyridin-3-yl)methyl]-6-[2-(4-methylpiperazin-1-yl)pyridin-4-yl]-1-propan-2-ylindazole-4-carboxamide]	–	–	marked and highly significant increase	robust increased expression	marked and highly significant increase	marked and highly significant increase
CC(C)N(CCCNC(=O)Nc1ccc(C(C)(C)C)cc1)C[C@H]1O[C@@H](n2ccc3c(N)ncnc32)[C@H](O)[C@@H]1O [EPZ004777, 1-[3-[[(2R,3S,4R,5R)-5-(4-aminopyrrolo[2,3-d]pyrimidin-7-yl)-3,4-dihydroxyoxolan-2-yl]methyl-propan-2-ylamino]propyl]-3-(4-tert-butylphenyl)urea]	–	–	modest functional enhancement with an increased synchronous firing rate	robust increased expression	–	–
